# Measured values as given in patent US11028079B2 (ConverGene LLC, priority 2015, dated 2021).
# Molecular target: T1, BRD4 bromodomains (Homo sapiens, UniProt O60885)
# T1 construct: fused on or other part: T7 phage capsid protein (phage-display fusion; the phage DNA is read out by qPCR)
# Assay: BROMOscan bromodomain competition binding assay (DiscoveRx)
# Conditions: Kd from 11 compound concentrations ranging from 0 to 10 μM, read-out: BROMOscan Relative Activity
# Summary of the method: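 Compounds in 0.1% DMSO/0.9% MEG competed with a solid-phase acetylated peptide for T7 phage-fused BRD4 bromodomains, with the retained bromodomain measured by qPCR.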
row,Kd,SMILES
1,< 500 nM,"Cc1noc(C)c1-c1ccc2nc(N3CCN(C(=O)c4cnn(C)c4)CC3)nc(N3CCOC[C@@H]3c3ccccc3)c2c1 [Example 300, (S)-(4-(6-(3,5-dimethylisoxazol-4-yl)-4-(3-phenylmorpholino)quinazolin-2-yl)piperazin-1-yl)(1-methyl-1H-pyrazol-4-yl)methanone]"
2,< 500 nM,"Cn1cc(-c2ccc3nc(-c4cnn(CCO)c4)nc(NCc4cncc(Cl)c4)c3c2)ccc1=O [Example 143, 5-(4-(((5-chloropyridin-3-yl)methyl)amino)-2-(1-(2-hydroxyethyl)-1H-pyrazol-4-yl)quinazolin-6-yl)-1-methylpyridin-2(1H)-one]"
3,< 500 nM,"CNC(=O)C1CCN(c2ncnc3ccc(-c4c(C)noc4C)cc23)CC1 [Example 270, 1-(6-(3,5-dimethylisoxazol-4-yl)quinazolin-4-yl)-N-methylpiperidine-4-carboxamide]"
4,< 500 nM,"Cn1cc(-c2ccc3nc(-c4cnn(C(C)(C)CO)c4)nc(NCc4cncc(Cl)c4)c3c2)ccc1=O [Example 149, 5-(4-(((5-chloropyridin-3-yl)methyl)amino)-2-(1-(1-hydroxy-2-methylpropan-2-yl)-1H-pyrazol-4-yl)quinazolin-6-yl)-1-methylpyridin-2(1H)-one]"
5,< 500 nM,"Cc1noc(C)c1-c1ccc2nc(N3CCCN(CCO)CC3)nc(NCc3cccc(Cl)c3)c2c1 [Example 33, 2-(4-(4-((3-chlorobenzyl)amino)-6-(3,5-dimethylisoxazol-4-yl)quinazolin-2-yl)-1,4-diazepan-1-yl)ethanol]"
6,< 500 nM,"CNC(=O)C1CCN(c2nc(N3CCOC[C@@H]3c3ccccc3)c3cc(-c4c(C)noc4C)ccc3n2)CC1 [Example 296, (S)-1-(6-(3,5-dimethylisoxazol-4-yl)-4-(3-phenylmorpholino)quinazolin-2-yl)-N-methylpiperidine-4-carboxamide]"
7,< 500 nM,"Cc1noc(C)c1-c1ccc2nc(NCCN3CCN(C)CC3)nc(NCc3cccc(Cl)c3)c2c1 [Example 11, N4-(3-chlorobenzyl)-6-(3,5-dimethylisoxazol-4-yl)-N2-(2-(4-methylpiperazin-1-yl)ethyl)quinazoline-2,4-diamine]"
8,< 500 nM,"Cc1noc(C)c1-c1ccc2nc(C(=O)NCC3CN(C)C3)nc(N3CCOC[C@@H]3c3ccccc3)c2c1 [Example 283, (S)-6-(3,5-dimethylisoxazol-4-yl)-N-((1-methylazetidin-3-yl)methyl)-4-(3-phenylmorpholino)quinazoline-2-carboxamide]"
9,< 500 nM,"Cc1noc(C)c1-c1ccc2nc(C(=O)NC3CN(C)C3)nc(NC3(c4cccc(Cl)c4)CC3)c2c1 [Example 242, 4-((1-(3-chlorophenyl)cyclopropyl)amino)-6-(3,5-dimethylisoxazol-4-yl)-N-(1-methylazetidin-3-yl)quinazoline-2-carboxamide]"
10,< 500 nM,"Cc1noc(C)c1-c1ccc2nc(C(=O)NC3CCS(=O)(=O)CC3)nc(NC3(c4cccc(Cl)c4)CC3)c2c1 [Example 246, 4-((1-(3-chlorophenyl)cyclopropyl)amino)-6-(3,5-dimethylisoxazol-4-yl)-N-(1,1-dioxidotetrahydro-2H-thiopyran-4-yl)quinazoline-2-carboxamide]"
11,< 500 nM,"Cn1cc(C(=O)N2CCN(c3nc(NCc4cccc(Cl)c4)c4cc(-c5ccc(=O)n(C)c5)ccc4n3)CC2)cn1 [Example 122, 5-(4-((3-chlorobenzyl)amino)-2-(4-(1-methyl-1H-pyrazole-4-carbonyl)piperazin-1-yl)quinazolin-6-yl)-1-methylpyridin-2(1H)-one]"
12,< 500 nM,"Cc1noc(C)c1-c1ccc2nc(-c3cnn(CS(C)(=O)=O)c3)nc(N3CCOC[C@@H]3c3ccccc3)c2c1 [Example 302, (S)-4-(6-(3,5-dimethylisoxazol-4-yl)-2-(1-((methylsulfonyl)methyl)-1H-pyrazol-4-yl)quinazolin-4-yl)-3-phenylmorpholine]"
13,< 500 nM,"Cc1noc(C)c1-c1ccc2nc(N3CCN(CCN(C)C)CC3)nc(NCc3cccs3)c2c1 [Example 71, 2-(4-(2-(dimethylamino)ethyl)piperazin-1-yl)-6-(3,5-dimethylisoxazol-4-yl)-N-(thiophen-2-ylmethyl)quinazolin-4-amine]"
14,500 to 5000 nM,"Cc1noc(C)c1-c1ccc2nc(Cl)nc(NCc3cncc(Cl)c3)c2c1 [Example 112, 2-chloro-N-((5-chloropyridin-3-yl)methyl)-6-(3,5-dimethylisoxazol-4-yl)quinazolin-4-amine]"
15,< 500 nM,"Cc1noc(C)c1-c1ccc2nc(-c3cnn(CC(C)(C)O)c3)nc(N(Cc3cccc(Cl)c3)C3CC3)c2c1 [Example 312, 1-(4-(4-((3-chlorobenzyl)(cyclopropyl)amino)-6-(3,5-dimethylisoxazol-4-yl)quinazolin-2-yl)-1H-pyrazol-1-yl)-2-methylpropan-2-ol]"
16,< 500 nM,"Cc1noc(C)c1-c1ccc2nc(C(=O)NCc3cncn3C)nc(NCc3cccc(Cl)c3)c2c1 [Example 183, 4-((3-chlorobenzyl)amino)-6-(3,5-dimethylisoxazol-4-yl)-N-((1-methyl-1H-imidazol-5-yl)methyl)quinazoline-2-carboxamide]"
17,< 500 nM,"CNC(=O)CN1CCN(c2nc(NCc3cncc(Cl)c3)c3cc(-c4c(C)noc4C)ccc3n2)CC1 [Example 118, 2-(4-(4-(((5-chloropyridin-3-yl)methyl)amino)-6-(3,5-dimethylisoxazol-4-yl)quinazolin-2-yl)piperazin-1-yl)-N-methylacetamide]"
18,< 500 nM,"Cc1noc(C)c1-c1ccc2nc(-c3cnn(CC(C)(C)O)c3)nc(N3CCOC[C@@H]3c3ccccc3)c2c1 [Example 262, (S)-1-(4-(6-(3,5-dimethylisoxazol-4-yl)-4-(3-phenylmorpholino)quinazolin-2-yl)-1H-pyrazol-1-yl)-2-methylpropan-2-ol]"
19,< 500 nM,"Cc1noc(C)c1-c1ccc2nc(C(=O)NC3CCS(=O)(=O)CC3)cc(NCc3cccc(Cl)c3)c2c1 [Example 235, 4-((3-chlorobenzyl)amino)-6-(3,5-dimethylisoxazol-4-yl)-N-(1,1-dioxidotetrahydro-2H-thiopyran-4-yl)quinoline-2-carboxamide]"
20,< 500 nM,"Cc1noc(C)c1-c1ccc2nc(-c3cnn(CC(=O)O)c3)nc(NCc3cccc(Cl)c3)c2c1 [Example 166, 2-(4-(4-((3-chlorobenzyl)amino)-6-(3,5-dimethylisoxazol-4-yl)quinazolin-2-yl)-1H-pyrazol-1-yl)acetic acid]"
21,500 to 5000 nM,"Cc1noc(C)c1-c1ccc2nc(N3CCCC(CO)C3)nc(NCc3cccc(Cl)c3)c2c1 (centres unmarked) [Example 24, (1-(4-((3-chlorobenzyl)amino)-6-(3,5-dimethylisoxazol-4-yl)quinazolin-2-yl)piperidin-3-yl)methanol]"
22,> 5000 nM,"Cn1cc(-c2ccc3nc(Cl)nc(NCc4cccc(Cl)c4)c3c2)ccc1=O [Example 100, 5-(2-chloro-4-((3-chlorobenzyl)amino)quinazolin-6-yl)-1-methylpyridin-2(1H)-one]"
23,< 500 nM,"Cc1noc(C)c1-c1ccc2nc(N3CCN(CCN(C)C)CC3)nc(N3CCC3c3ccccc3)c2c1 (centres unmarked) [Example 179, 2-(4-(6-(3,5-dimethylisoxazol-4-yl)-4-(2-phenylazetidin-1-yl)quinazolin-2-yl)piperazin-1-yl)-N,N-dimethylethanamine]"
